The values below come from patent publication US12319666B2, “Hydrate of dimethylaminomicheliolide fumarate and preparation method therefor and use thereof” (priority 2020, dated 2025).

Data set [1] can be described thus: Crystal particle size (scanning electron micrograph of crystal morphology). Format: physicochemical. The conditions noted are these: for average particle size: crystal product, SEM. As to the method:
(§1) The crystal habit of the hydrate of dimethylaminomicheliolide fumarate is studied in the present disclosure, and a scanning electron micrograph thereof is shown in FIG. 3. —The crystal has a regular block crystal habit, and the surface of the particle is smooth without agglomeration, meanwhile, the crystal has a large average particle size that can reach 300 μm, a bulk density of 0.65 g/mL, and an angle of repose of 32°. The product features high bulk density and good fluidity. In comparison, the crystalline form A prepared using the natural cooling recrystallization method disclosed in patent CN103724307B has a primary particle size of 35.8 μm, a bulk density of mere 0.270 g/mL and an angle of repose of 62°, and a scanning electron micrograph thereof is shown in FIG. 4.

Data set [2] is described as follows: Bulk density of crystal product. It is filed as physicochemical. As to the method: as §1
Data set [3] can be described thus: Angle of repose (fluidity). The note with it: crystal product without auxiliary materials. Format: physicochemical. The method, then: as §1
The hydrate of the present disclosure has good fluidity and is more suitable for being prepared as a medicament at a later stage. It is well known that the fluidity of an active ingredient per se is generally hard to meet the filling conditions of capsules or microcapsules, and auxiliary materials such as pregelatinized starch, silica and magnesium stearate are required to meet the requirements for fluidity by the filling conditions so as to achieve the desired quality of dosage forms and production efficiency. Taking the specification of 100 mg capsules as an example, if other forms such as crystalline form A are used as active ingredients, the weight of capsule contents reaches about 310 mg after auxiliary materials are added, and thus the largest 0 # capsule shell must be used, and larger specification such as capsules containing 200 mg of active ingredients cannot be prepared.

A short description of data set [4]: Stability of the hydrate at 45° C., humidity 75%, 30 days (XRD and purity analysis). Format: physicochemical. The method, then: The stability of the hydrate of dimethylaminomicheliolide fumarate is investigated in the present disclosure. The […] crystal compound product is uniformly distributed in an open Petri dish. The temperature is controlled at 45° C., the humidity is 75%, and the sample thickness is less than 5 mm. The Petri dish is hermetically placed in a drier for 30 days. Then the samples placed for 7, 14 and 30 days were examined by XRD and compared with the results on day 0. […] Meanwhile, the samples at days 7, 14 and 30 are subjected to purity analysis. […] By combining the XRD patterns and the results of the purity analysis, the hydrate of dimethylaminomicheliolide fumarate is shown to have good stability.

A short description of data set [5]: Solubility in solvents (qualitative). It is filed as physicochemical.
For data set [6] the following is noted: background statement; cited from earlier work.
For data set [7] the following is noted: cited from earlier work.

In turn, `CC1=C2CC[C@@](C)(O)[C@@H]2[C@H]2OC(=O)[C@@H](CN(C)C)[C@@H]2CC1.O=C(O)/C=C/C(=O)O` [Example 2, hydrate of dimethylaminomicheliolide fumarate] displayed an average particle size in data set [1] of at most 300 μm. The compound also showed a bulk density in data set [2] of 0.655 g/mL. Further, in data set [3], the angle of repose turned out to be 32 °.

As to `CC1=C2CC[C@@](C)(O)[C@@H]2[C@H]2OC(=O)[C@@H](CN(C)C)[C@@H]2CC1.O=C(O)/C=C/C(=O)O` [Example 3, hydrate of dimethylaminomicheliolide fumarate], in data set [1], the average particle size is at most 300 μm. The compound further returned a bulk density in data set [2] of 0.65 g/mL. The angle of repose in data set [3] came out at 32 °.

As to `CC1=C2CC[C@@](C)(O)[C@@H]2[C@H]2OC(=O)[C@@H](CN(C)C)[C@@H]2CC1.O=C(O)/C=C/C(=O)O` [hydrate of dimethylaminomicheliolide fumarate], in data set [1], the average particle size is reported as at most 300 μm. In addition, the bulk density in data set [2] is 0.65 g/mL. In addition, the angle of repose in data set [3] and in data set [3] (listed as hydrate of dimethylaminomicheliolide fumarate in the crystalline form D) was 32 ° throughout. The “change in purity vs day 0” value in data set [4] (day 7) worked out at 0.015%; in data set [4] (day 14), 0.027%; in data set [4] (day 30), 0.046%. Further, the “change in the XRD pattern” value in data set [4] (days 7, 14 and 30 vs day 0) was “no significant change”.

On to `CC1=C2CC[C@@](C)(O)[C@@H]2[C@H]2OC(=O)[C@@H](CN(C)C)[C@@H]2CC1.O=C(O)/C=C/C(=O)O` [Dimethylaminomicheliolide fumarate], for which the solubility entry in data set [5] (in cyclohexane, n-hexane, n-heptane, dichloromethane, isopropyl ether and toluene) is recorded as “almost insoluble”; in data set [5] (in water, methanol, ethanol, tetrahydrofuran, 1,4-dioxane, acetone, acetonitrile and isopropyl acetate), “soluble”.

`CC1=C2CC[C@@](C)(O)[C@@H]2[C@H]2OC(=O)[C@@H](CN(C)C)[C@@H]2CC1.O=C(O)/C=C/C(=O)O` [Example 8, hydrate of dimethylaminomicheliolide fumarate]: the average particle size in data set [1] is reported as at most 300 μm. This compound displayed a bulk density in data set [2] of 0.654 g/mL. In addition, the angle of repose in data set [3] is 32.1 °.

Turning to `CC1=C2CC[C@@](C)(O)[C@@H]2[C@H]2OC(=O)[C@@H](CN(C)C)[C@@H]2CC1.O=C(O)/C=C/C(=O)O` [Example 9, hydrate of dimethylaminomicheliolide fumarate], the average particle size in data set [1] is listed as at most 300 μm. Moreover, in data set [2], the bulk density was determined as 0.645 g/mL. In data set [3], this compound showed an angle of repose of 32.3 °.

For the compound `C=C1C(=O)O[C@H]2[C@H]1CCC(C)=C1CC[C@@](C)(O)[C@@H]12` [micheliolide], in data set [6], the solubility in water entry is “poor solubility in water”.

`CC1=C2CC[C@@](C)(O)[C@@H]2[C@H]2OC(=O)[C@@H](CN(C)C)[C@@H]2CC1.O=C(O)/C=C/C(=O)O` [Example 5, hydrate of dimethylaminomicheliolide fumarate] gave an average particle size in data set [1] of at most 300 μm. The compound also displayed a bulk density in data set [2] of 0.645 g/mL. This compound displayed an angle of repose in data set [3] of 32 °.

In data set [1], `CC1=C2CC[C@@](C)(O)[C@@H]2[C@H]2OC(=O)[C@@H](CN(C)C)[C@@H]2CC1.O=C(O)/C=C/C(=O)O` [Example 1, hydrate of dimethylaminomicheliolide fumarate] showed an average particle size of at most 300 μm. This compound also yielded a bulk density in data set [2] of 0.646 g/mL. For the same compound, the angle of repose in data set [3] was determined as 32.5 °.

In the case of `CC1=C2CC[C@@](C)(O)[C@@H]2[C@H]2OC(=O)[C@@H](CN(C)C)[C@@H]2CC1.O=C(O)/C=C/C(=O)O` [crystalline form A, dimethylaminomicheliolide fumarate], the primary particle size in data set [1] (form A from natural cooling recrystallization, method of CN103724307B) stood at 35.8 μm. Also, the “stability of the crystalline form” value in data set [7] (prone to transformation) is given as “poor stability”. Further, the bulk density in data set [2] worked out at 0.270 g/mL. For the same compound, the angle of repose in data set [3] stood at 62 °.

Compound `CC1=C2CC[C@@](C)(O)[C@@H]2[C@H]2OC(=O)[C@@H](CN(C)C)[C@@H]2CC1.O=C(O)/C=C/C(=O)O` [Example 6, hydrate of dimethylaminomicheliolide fumarate] registered an average particle size in data set [1] of at most 300 μm. The same compound returned a bulk density in data set [2] of 0.65 g/mL. Moreover, the angle of repose in data set [3] is on record as 32.3 °.

Turning to `CC1=C2CC[C@@](C)(O)[C@@H]2[C@H]2OC(=O)[C@@H](CN(C)C)[C@@H]2CC1` [DMAMCL, dimethylaminomicheliolide], the “stability on long-term storage” value in data set [7] (background statement) is “unstable”. For the same compound, the solubility in water result in data set [6] was “improved solubility in water to a certain degree relative to MCL”.

`CC1=C2CC[C@@](C)(O)[C@@H]2[C@H]2OC(=O)[C@@H](CN(C)C)[C@@H]2CC1.O=C(O)/C=C/C(=O)O` [Example 7, hydrate of dimethylaminomicheliolide fumarate]: the average particle size in data set [1] was at most 300 μm. This compound also yielded a bulk density in data set [2] of 0.65 g/mL. For the same compound, the angle of repose in data set [3] came to 32 °.

Regarding `CC1=C2CC[C@@](C)(O)[C@@H]2[C@H]2OC(=O)[C@@H](CN(C)C)[C@@H]2CC1.O=C(O)/C=C/C(=O)O` [Example 4, hydrate of dimethylaminomicheliolide fumarate], the average particle size in data set [1] is listed as at most 300 μm. The same compound had a bulk density in data set [2] of 0.659 g/mL. For the same compound, the angle of repose in data set [3] came out at 32.2 °.
